Reference: patent US9227971B2, “Pyrazolo[1,5-a]pyrimidine compounds as mTOR inhibitors” (Merck Sharp & Dohme Corp., priority 2010, dated 2016)

test system: phosphorylated AKT Ser473 (pAKT S473), mTORC2 activity, PC3 cells; test: mTOR target engagement assay, immunofluorescent cell-based, pAKT S473 readout (mTORC2 activity); conditions: Homo sapiens, PC-3, PC3 cells
Method: The target engagement of mTOR kinase inhibitors was evaluated using an immunofluorescent cell-based assay. In this assay, inhibition of mTORC1 activity was measured by the reduction in the level of phosphorylated 4E-BP1^[…] (p4E-BP1 Thr37/46), and inhibition of mTORC2 activity was measured by the reduction of phosphorylated AKT^Ser473 (pAKT S473).
PC3 cells (prostate tumor cell-line that contains a mutation in the tumor suppressor PTEN, that promotes the phosphorylation and activation of AKT and 4E-BP1) were used in the immunofluorescence assay. […] PC3 cells were then treated with 40 μl of the serially diluted test compounds (in 5% fetal bovine serum, F12 medium containing 0.25% DMSO) for ninety minutes at 37° C. The test compound solution was removed, and the plates were washed gently two times with 25 μl phosphate buffered saline (PBS). […] 5% Goat serum in PBS/0.3% Triton was used to block non-specific binding (60 minutes).
The primary antibodies targeting pAKT S473 and p4E-BP1 Thr37/46 were diluted into PBS/0.3% Triton and incubated with the cells overnight at 4° C. […] Plates were washed three times with PBS/0.1% Tween 20 before adding the secondary antibody at a 1:200 dilution.
Finally, the plates were washed three times with PBS/0.1% Tween 20 and the fluorescent intensity was read using an Analyst HT from Molecular Devices.

| SMILES | IC50 [nM] |
| --- | --- |
| CC(=O)c1c(N2CC3CCC(C2)N3C(=O)[C@@H](C)O)nc2c(-c3ccc(-c4ccccc4)nc3)cnn2c1N [Compound 8.2, (2R)-1-(3-(6-acetyl-7-amino-3-(6-phenylpyridin-3-yl)pyrazolo[1,5-a]pyrimidin-5-yl)-3,8-diazabicyclo[3.2.1]octan-8-yl)-2-hydroxypropan-1-one] | 100 to 1000 |
| CS(=O)(=O)c1c([C@@H]2C[C@H]3CC[C@@H](C2)N3CC(N)=O)nc2c(-c3ccc(-c4ccccc4)nc3)cnn2c1N [Compound 8.92, 2-((1R,3s,5S)-3-(7-amino-6-(methylsulfonyl)-3-(6-phenylpyridin-3-yl)pyrazolo[1,5-a]pyrimidin-5-yl)-8-azabicyclo[3.2.1]octan-8-yl)acetamide] | 1000 to 10000 |
| CCOC(=O)Nc1ccc(-c2cnn3c(N)c(C(C)=O)c([C@@H]4C[C@H]5CC[C@@H](C4)N5C(=O)CO)nc23)cn1 [Compound 8.77, ethyl 5-(6-acetyl-7-amino-5-((1R,3s,5S)-8-(2-hydroxyacetyl)-8-azabicyclo[3.2.1]octan-3-yl)pyrazolo[1,5-a]pyrimidin-3-yl)pyridin-2-ylcarbamate] | 100 to 1000 |

same assay, conditions: Homo sapiens, PC-3, PC3 cells, compound treatment ninety minutes at 37° C.

| SMILES | IC50 [nM] |
| --- | --- |
| CC(=O)c1c([C@@H]2C[C@H]3CC[C@@H](C2)N3C(=O)[C@@H](C)O)nc2c(-c3ccc(-c4ccc(F)cc4)nc3)cnn2c1N [Compound 1.1.158, (R)-1-((1R,3S,5S)-3-(6-acetyl-7-amino-3-(6-(4-fluorophenyl)pyridin-3-yl)pyrazolo[1,5-a]pyrimidin-5-yl)-8-azabicyclo[3.2.1]octan-8-yl)-2-hydroxypropan-1-one] | 100 to 1000 |
| CC(=O)c1c([C@@H]2C[C@H]3CC[C@@H](C2)N3C(=O)C(C)(C)O)nc2c(-c3ccc(-c4ccccc4)nc3)cnn2c1N [Compound 1.1.6, 1-((1R,3s,5S)-3-(6-acetyl-7-amino-3-(6-phenylpyridin-3-yl)pyrazolo[1,5-a]pyrimidin-5-yl)-8-azabicyclo[3.2.1]octan-8-yl)-2-hydroxy-2-methylpropan-1-one] | 100 to 1000 |
| CC(=O)c1c([C@@H]2C[C@H]3CC[C@@H](C2)N3C(=O)C(C)(C)O)nc2c(-c3ccc(-c4nccs4)nc3)cnn2c1N [Compound 1.1.35, 1-((1R,3s,5S)-3-(6-acetyl-7-amino-3-(6-(thiazol-2-yl)pyridin-3-yl)pyrazolo[1,5-a]pyrimidin-5-yl)-8-azabicyclo[3.2.1]octan-8-yl)-2-hydroxy-2-methylpropan-1-one] | 100 to 1000 |

same assay, conditions: Homo sapiens, PC-3, Table 6-1; PC3 cells

| SMILES | IC50 [nM] |
| --- | --- |
| CC(=O)c1c([C@@H]2C[C@H]3CC[C@@H](C2)N3C(=O)CO)nc2c(-c3cnc(-c4ncc[nH]4)c(F)c3)cnn2c1N [Compound 6.28, 1-((1R,3s,5S)-3-(6-acetyl-7-amino-3-(5-fluoro-6-(1H-imidazol-2-yl)pyridin-3-yl)pyrazolo[1,5-a]pyrimidin-5-yl)-8-azabicyclo[3.2.1]octan-8-yl)-2-hydroxyethanone] | 1 to 100 |
| CC(=O)c1c([C@@H]2C[C@H]3CC[C@@H](C2)N3C(=O)c2cc(N)n[nH]2)nc2c(-c3ccc(-c4ncc[nH]4)nc3)cnn2c1N [Compound 6.17, 1-(3-(6-(1H-imidazol-2-yl)pyridin-3-yl)-7-amino-5-((1R,3s,5S)-8-(3-amino-1H-pyrazole-5-carbonyl)-8-azabicyclo[3.2.1]octan-3-yl)pyrazolo[1,5-a]pyrimidin-6-yl)ethanone] | 1 to 100 |
| CC(=O)c1c([C@@H]2C[C@H]3CC[C@@H](C2)N3C(=O)[C@H](C)O)nc2c(-c3ccc(-c4ncc[nH]4)nc3)cnn2c1N [Compound 6.8, (S)-1-((1R,3R,5S)-3-(3-(6-(1H-imidazol-2-yl)pyridin-3-yl)-6-acetyl-7-aminopyrazolo[1,5-a]pyrimidin-5-yl)-8-azabicyclo[3.2.1]octan-8-yl)-2-hydroxypropan-1-one] | 1 to 100 |
| COCCOCC(=O)N1[C@@H]2CC[C@H]1C[C@H](c1nc3c(-c4ccc(-c5ncc[nH]5)nc4)cnn3c(N)c1C(C)=O)C2 [Compound 6.13, 1-((1R,3s,5S)-3-(3-(6-(1H-imidazol-2-yl)pyridin-3-yl)-6-acetyl-7-aminopyrazolo[1,5-a]pyrimidin-5-yl)-8-azabicyclo[3.2.1]octan-8-yl)-2-(2-methoxyethoxy)ethanone] | 1 to 100 |
